We go through 55 compounds from ChEMBL document CHEMBL1142906, “Structure-activity relationships of novel piperazines as antagonists for the melanocortin-4 receptor” (Bioorg Med Chem, 2007).

The assay concerns the target Melanocortin receptor 4 (Homo sapiens, UniProt P32245). As to the kind of experiment: Displacement of [125I]Nle4-D-Phe7-alpha-MSH from human MC4 receptor expressed in COS1 cells. The assay is classed as cell-based, COS-1. In general terms: Displacement assays read how much labelled ligand stays bound in the presence of the test substance.

Sequence of Melanocortin receptor 4 (P32245 whole entry): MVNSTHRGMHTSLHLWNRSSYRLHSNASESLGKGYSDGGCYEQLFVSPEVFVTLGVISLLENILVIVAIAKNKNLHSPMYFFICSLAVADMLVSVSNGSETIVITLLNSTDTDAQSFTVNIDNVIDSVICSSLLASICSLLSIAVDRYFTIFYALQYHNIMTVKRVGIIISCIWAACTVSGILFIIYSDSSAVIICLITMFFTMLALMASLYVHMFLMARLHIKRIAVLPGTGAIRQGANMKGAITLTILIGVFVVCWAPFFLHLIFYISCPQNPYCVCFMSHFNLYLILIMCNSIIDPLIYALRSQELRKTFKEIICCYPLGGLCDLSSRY

Consider `CCN1CCN(C(CN2CCN(CCCCc3cccc4ccccc34)CC2)c2ccc(F)cc2)CC1` (racemic), for which the IC50 turned out to be 105 nM.

Take `COc1ccc(CCCCN2CCN(CC(c3ccc(F)cc3)N3CCN(C)CC3)CC2)c2ccccc12` (racemic): the IC50 worked out at 228 nM.

In turn, `CN1CCN(C(CN2CCN(Cc3cccc4ccccc34)CC2)c2ccc(F)cc2)CC1` (racemic) yielded an IC50 of 594 nM. This IC50 lies about 2.6-fold higher than the previous one.

`CC(C)N1CCN(C(CN2CCN(CCCc3ccccc3-c3ccc(-c4ccccc4)cc3)CC2)c2ccc(F)cc2)CC1` (racemic) yielded an IC50 of 228 nM.

In the case of `CN1CCN(C(CN2CCN(CCCCCCc3cccc4ccccc34)CC2)c2ccc(F)cc2)CC1` (racemic), the IC50 was determined as 341 nM.

As for `CN1CCN(C(CN2CCN(CCCCc3cccc4ccccc34)CC2)c2ccccc2)CC1` (racemic), the 50% inhibitory concentration (IC50) came out at 745 nM. This IC50 lies about 2.2-fold higher than the previous one.

The compound `COc1ccc2ccccc2c1CCCCN1CCN(CC(c2ccc(F)cc2)N2CCN(C(C)C)CC2)CC1` (racemic) displayed an IC50 of 12.7 nM.

As for `CC(C)Oc1ccc2ccccc2c1CCCCN1CCN(CC(c2ccc(F)cc2)N2CCN(C(C)C)CC2)CC1` (racemic), the half-inhibitory concentration (IC50) came to 22 nM.

In the case of `CC(C)N1CCN(C(CN2CCN(CCCc3ccc(-c4ccccc4)cc3)CC2)c2ccc(F)cc2)CC1` (racemic), the IC50 came out at 243 nM.

The compound `CC(C)N1CCN(C(CN2CCN(CCCc3ccccc3-c3ccccc3F)CC2)c2ccc(F)cc2)CC1` (racemic) showed an IC50 of 36.8 nM. This IC50 is about 6.6-fold lower than that of the compound before.

Regarding `CN1CCN(C(CN2CCN(CCCCc3cccc4ccccc34)CC2)c2cccc(F)c2)CC1` (racemic), the concentration for half-maximal inhibition (IC50) came to 653 nM.

Compound `COc1ccc2ccccc2c1CCCCN1CCN(CC(c2ccc(F)cc2)N2CCN(C)CC2)CC1` (racemic) displayed an IC50 of 57.3 nM.

`CN1CCN(C(CN2CCN(CCCc3ccc4ccccc4c3)CC2)c2ccc(F)cc2)CC1` (racemic) displayed an IC50 of 1190 nM.

Compound `CN1CCN(C(CN2CCN(CCCCc3ccc4ccccc4c3)CC2)c2ccc(F)cc2)CC1` (racemic) showed an IC50 of 336 nM.

In turn, `COc1ccc2ccccc2c1CCCCN1CCN(CC(c2ccc(F)cc2)N2CCN(C3CCCC3)CC2)CC1` (racemic) came in with a concentration for half-maximal inhibition (IC50) of 47.2 nM.

Compound `CN1CCN(C(CN2CCN(CCCCc3cccc4ccccc34)CC2)c2ccccc2Br)CC1` (racemic) came in with an IC50 of 2300 nM.

With `CN1CCN(C(CN2CCN(CCc3cccc4ccccc34)CC2)c2ccc(F)cc2)CC1` (racemic), the IC50 was 567 nM.

For the compound `COc1ccc2ccccc2c1CCCCN1CCN(CC(c2ccc(F)cc2)N2CCN(C(C)C)CC2)CC1` (stereo in doubt; (+)-10bg), the IC50 amounted to 22 nM.

The compound `CN1CCN(C(CN2CCN(CCCCc3cccc4ccccc34)CC2)c2ccc(C(F)(F)F)cc2)CC1` (racemic) returned an IC50 of 226 nM.

Turning to `Fc1ccc(C(CN2CCN(CCCCc3cccc4ccccc34)CC2)N2CCN(C3CC3)CC2)cc1` (racemic), the IC50 is 147 nM. Against the preceding compound, the IC50 is about 1.5-fold lower.

For `Fc1ccc(C(CN2CCN(CCCCc3cccc4ccccc34)CC2)N2CCN(C3CCCCC3)CC2)cc1` (racemic), the 50% inhibitory concentration (IC50) turned out to be 241 nM.

For the compound `CC(C)N1CCN(C(CN2CCN(CCCCc3c(Br)ccc4ccccc34)CC2)c2ccc(F)cc2)CC1` (racemic), the IC50 stood at 36.8 nM.

In turn, `CCOc1ccc2ccccc2c1CCCCN1CCN(CC(c2ccc(F)cc2)N2CCN(C(C)C)CC2)CC1` (racemic) returned an IC50 of 26 nM. This IC50 and that of the compound before are within 1.5-fold of each other.

The compound `CC(C)N1CCN(C(CN2CCN(CCCc3ccccc3-c3ccc(N(C)C)cc3)CC2)c2ccc(F)cc2)CC1` (racemic) had an IC50 of 92.5 nM.

`CN1CCN(C(CN2CCN(CCCCc3cccc4ccccc34)CC2)c2ccc(N)cc2)CC1` (racemic): the 50% inhibitory concentration (IC50) was 3590 nM.

Take `CN1CCN(C(CN2CCN(Cc3ccc4ccccc4c3)CC2)c2ccc(F)cc2)CC1` (racemic): the IC50 was 1250 nM.

`CN1CCN(C(CN2CCN(CCCCc3cccc4ccccc34)CC2)c2ccc([N+](=O)[O-])cc2)CC1` (racemic) registered an IC50 of 263 nM.

For `COc1ccc(C(CN2CCN(CCCCc3cccc4ccccc34)CC2)N2CCN(C)CC2)cc1` (racemic), the IC50 is 871 nM.

`COc1ccc(-c2ccccc2CCCN2CCN(CC(c3ccc(F)cc3)N3CCN(C(C)C)CC3)CC2)cc1` (racemic) showed an IC50 of 42.6 nM.

Take `CC(C)N1CCN(C(CN2CCN(CCCc3ccccc3-c3ccc(C(C)(C)C)cc3)CC2)c2ccc(F)cc2)CC1` (racemic): the concentration for half-maximal inhibition (IC50) stood at 100 nM.

The compound `CC(C)N1CCN(C(CN2CCN(CCCc3ccccc3-c3ccc(C(F)(F)F)cc3)CC2)c2ccc(F)cc2)CC1` (racemic) returned a concentration for half-maximal inhibition (IC50) of 62.8 nM.

Consider `COc1ccc2ccccc2c1CCCCN1CCN(CC(c2ccc(F)cc2)N2CCN(C(C)(C)C)CC2)CC1` (racemic), for which the half-maximal inhibitory concentration (IC50) was found to be 18 nM.

`CN1CCN(C(CN2CCN(CCCCc3cccc4ccccc34)CC2)c2ccc(F)cc2)CC1` (racemic) gave an IC50 of 118 nM.

`CC(C)N1CCN(C(CN2CCN(CCCCc3cccc4ccccc34)CC2)c2ccc(F)cc2)CC1` (racemic) gave an IC50 of 72.3 nM.

In turn, `CN1CCN(C(CN2CCN(CCc3ccc4ccccc4c3)CC2)c2ccc(F)cc2)CC1` (racemic) had a 50% inhibitory concentration (IC50) of 1870 nM.

In turn, `Cc1ccc(-c2ccccc2CCCN2CCN(CC(c3ccc(F)cc3)N3CCN(C(C)C)CC3)CC2)cc1` (racemic) yielded an IC50 of 41.8 nM.

Consider `COc1cccc(-c2ccccc2)c1CCCN1CCN(CC(c2ccc(F)cc2)N2CCN(C(C)C)CC2)CC1` (racemic), for which the IC50 stood at 15.2 nM. This IC50 is about 2.8-fold lower than that of the compound before.

Take `CC(C)N1CCN(C(CN2CCN(CCCc3ccccc3-c3ccc(OC(F)(F)F)cc3)CC2)c2ccc(F)cc2)CC1` (racemic): the IC50 turned out to be 85.9 nM. Against the preceding compound, the IC50 is about 5.7-fold higher.

Consider `CC(C)N1CCN(C(CN2CCN(CCCCc3ccccc3-c3ccccc3)CC2)c2ccc(F)cc2)CC1` (racemic), for which the IC50 was found to be 65.1 nM.

With `Fc1ccc(C(CN2CCN(CCCCc3cccc4ccccc34)CC2)N2CCN(c3ccccc3)CC2)cc1` (racemic), the IC50 is above 10000 nM.

In turn, `CN1CCN(C(CN2CCN(CCCCc3cccc4ccccc34)CC2)c2ccc(Br)cc2)CC1` (racemic) came in with an IC50 of 159 nM.

The compound `CC(C)N1CCN(C(CN2CCN(CCCc3cccc(-c4ccccc4)c3)CC2)c2ccc(F)cc2)CC1` (racemic) gave an IC50 of 156 nM.

`CC(C)N1CCN(C(CN2CCN(CCc3ccccc3-c3ccccc3)CC2)c2ccc(F)cc2)CC1` (racemic) came in with an IC50 of 186 nM.

With `CCCN1CCN(C(CN2CCN(CCCCc3cccc4ccccc34)CC2)c2ccc(F)cc2)CC1` (racemic), the IC50 was 177 nM.

Regarding `CCC(CC)N1CCN(C(CN2CCN(CCCCc3c(OC)ccc4ccccc34)CC2)c2ccc(F)cc2)CC1` (racemic), the IC50 worked out at 82.8 nM.

Regarding `CN1CCN(C(CN2CCN(CCCCc3cccc4ccccc34)CC2)c2ccc(-c3ccccc3)cc2)CC1` (racemic), the IC50 worked out at 756 nM.

For the compound `Fc1ccc(C(CN2CCN(CCCCc3cccc4ccccc34)CC2)N2CCNCC2)cc1` (racemic), the IC50 amounted to 303 nM.

`CN1CCN(C(CN2CCN(CCCc3cccc4ccccc34)CC2)c2ccc(F)cc2)CC1` (racemic) yielded an IC50 of 208 nM. This IC50 and that of the compound before are within 1.5-fold of each other.

`CN1CCN(C(CN2CCN(CCCCc3cccc4ccccc34)CC2)c2cccc(Br)c2)CC1` (racemic) displayed an IC50 of 565 nM.

For `CC(C)N1CCN(C(CN2CCN(CCCCc3c(O)ccc4ccccc34)CC2)c2ccc(F)cc2)CC1` (racemic), the IC50 was determined as 131 nM.

On to `CN1CCN(C(CN2CCN(CCCCc3cccc4ccccc34)CC2)c2ccc(Cl)cc2)CC1` (racemic), for which the IC50 amounted to 132 nM.

`CC(C)N1CCN(C(CN2CCN(CCCc3ccccc3-c3ccc(Cl)cc3)CC2)c2ccc(F)cc2)CC1` (racemic) showed an IC50 of 53.2 nM.

`Cc1ccc(C(CN2CCN(CCCCc3cccc4ccccc34)CC2)N2CCN(C)CC2)cc1` (racemic): the concentration for half-maximal inhibition (IC50) is 296 nM.

As to `CN1CCN(C(CN2CCN(CCCCCc3cccc4ccccc34)CC2)c2ccc(F)cc2)CC1` (racemic), the IC50 is 218 nM.

`COc1ccc2ccccc2c1CCCCN1CCN(CC(c2ccc(F)cc2)N2CCN(C(C)C)CC2)CC1` (single isomer, unassigned; (-)) gave an IC50 of 8.13 nM. This IC50 is about 27-fold lower than that of the compound before.

By IC50 is commonly meant the midpoint of a concentration-inhibition curve. Read a high IC50 as weaker potency.
